Entries after “also recorded” stand apart in the source; their conditions may differ.
Columns and labels:
[1] = test system: Notch signaling (target gene Hes1); assay: Notch inhibition: Hes1 mRNA by real-time qPCR in 3T3-L1 preadipocytes; format: cell-based; conditions: for mRNA expression of Hes1: 3T3-L1 preadipocytes, 1 μM, 12 h, real-time qPCR; for dose dependence of the inhibitory effect on Hes1 expression: 0.5, 1 and 10 μM
Experimental: (§1) Cell culture and drug treatment. 3T3-L1 preadipocytes were cultured in Dulbecco's modified Eagle medium (DMEM) supplemented with 10% fetal bovine serum (FBS) and 1% antibiotics (penicillin and streptomycin) at 37° C., 5% CO2, and 95% relative humidity. The medium was routinely changed every two days and cells were separated by trypsin before reaching confluency. Beige adipocyte differentiation was induced by treating confluent preadipocytes with the adipogenic induction medium containing DMEM, 10% FBS, 0.5 mM isobutylmethylxanthine, 1 μM dexamethasone, 1.75 μM insulin, and 1 μM rosiglitazone. Three days after induction, medium was switched to the differentiation medium containing DMEM, 10% FBS, 850 nM insulin, and 10 nM triiodothyronine until adipocytes matured. For the drug treatment, a series of GSIs were added to the cells in culture medium at the same final drug concentrations of 0.5, 1, and 10 μM, respectively, and cells were induced for differentiation.
(§2) RNA extraction, cDNA synthesis, and real-time qPCR. Total RNA was extracted from cells using TRIzol (Thermo Fisher Scientific, Waltham, Mass., USA) in accordance with the manufacturer's protocol. RNA was treated with RNase-free DNase I to remove contaminating genomic DNA and the purity as well as concentration of extracted RNA were determined by a spectrophotometer NanoDrop 2000c (Thermo Fisher Scientific, Waltham, Mass., USA). Subsequently, 2 μg of RNA was reverse transcribed to cDNA using random hexamer primers with M-MLV reverse transcriptase (Invitrogen, Carlsbad, Calif., USA). Real-time qPCR was performed in the Roche Light Cycler 480 PCR system (Roche, Basel, Switzerland) with SYBR Green master mix.
(§3) The 2^−ΔΔCT method was used to analyze the relative changes of gene expression after normalization to the expression of β-Actin.
To determine the impact of GSIs on inhibition of Notch signaling, 3T3-L1 preadipocytes were treated with a series of GSIs (see Table 1) at a concentration of 1 μM and the change in mRNA expression of Hes1, a Notch downstream transcriptional target gene, was evaluated using real-time qPCR.
To further examine the relationship between drug concentration and inhibitory effect of GSIs, cells were treated with the four most promising inhibitors (i.e., RO4929097, PF-03084014, LY3039478, and BMS-906024) at three gradient concentrations (0.5, 1, and 10 μM).
Effect of RO4929097-PLGA NPs on the Notch signaling target gene. 3T3-L1 preadipocytes were treated with DMSO, PLGA NPs (0.1 mg/mL), DBZ (10 μM), RO4929097 (1 μM) or RO4929097-PLGA NPs (0.1 mg/ml) for 12 h at 37° C. in a 5% CO2 incubator. The Notch target Hes1 mRNA expression was analyzed by qRT-PCR (FIG. 8). Each bar is the mean±SEM of 4 to 5 replicates in each group and the data were analyzed by one-way ANOVA followed by Tukey's post hoc comparison test. Asterisks refer to statistical difference between the indicated treatment groups (*p<0.05, **p<0.01, and ***p<0.001).

[2] = test system: differentiated 3T3-L1 cells; assay: mRNA expression of adipogenic, mitochondrial and browning marker genes by real-time qPCR; format: cell-based; conditions: for increase of mRNA expression of Tmem26: 0.5, 1 and 10 μM, highest dose significant versus control
Experimental: as §1, §2, §3

[3] = test system: UCP1 in differentiated 3T3-L1 cells; assay: UCP1 immunofluorescence staining; format: cell-based; conditions: 1 μM
Experimental: Immunofluorescence staining. After washing with phosphate-buffered saline (PBS), cells were fixed with 4% PFA, quenched with glycine (100 mM glycine and 0.1% sodium azide in PBS), and blocked with PBS containing 2% BSA, 5% goat serum, and 0.2% Triton X-100 for 1 h at room temperature. Subsequently, cells were incubated with the UCP1 antibody diluted at 1:500 in the same blocking buffer overnight at 4° C. and the Alexa Fluor® 488 conjugated goat anti-rabbit IgG (1:1000 dilution) for 1 h at room temperature. Nuclei were counterstained with 4′,6-diamidino-2-phenylindole (DAPI, 1 μg/mL), which was premixed with the secondary antibody.

[4] = test system: UCP1, PPARγ, and C/EBPα in differentiated 3T3-L1 cells; assay: Western blot of UCP1, PPARγ and C/EBPα protein; format: cell-based; conditions: for protein expression of UCP1 / decrease of the upregulated UCP1 protein expression: western blot; for decrease of the upregulated UCP1 protein expression: increasing the concentration from 1 to 10 μM
Experimental: as §1
Protein extraction and western blotting. Total protein was extracted from cells using RIPA buffer containing 25 mM Tris-HCl (pH 8.0), 150 mM NaCl, 1 mM EDTA, 0.5% NP-40, 0.5% sodium deoxycholate and 0.1% SDS. Protein concentrations were determined by Pierce BCA Protein Assay Reagent (Pierce Biotechnology, Waltham, Mass., USA). Proteins were separated by SDS-PAGE and transferred to a polyvinylidene fluoride membrane (Millipore, Burlington, Mass., USA). The membrane was then blocked with 5% fat-free milk for 1 h at room temperature and incubated with primary antibodies in 5% milk overnight at 4° C. as well as secondary antibodies for 1 h at room temperature. Primary antibodies, including UCP1 (1:1000 dilution), C/EBPα (1:500 dilution), PPARγ (1:500 dilution), and β-Actin (1:5000 dilution), were used. HRP-conjugated secondary antibodies, including anti-rabbit and anti-mouse IgG, were also used at a dilution of 1:10,000. A luminol reagent for enhanced chemiluminescence detection of western blots (Santa Cruz Biotechnology, Dallas, Tex., USA) was employed and signals were detected with a FluorChem R imaging system (ProteinSimple, San Jose, Calif., USA).
The protein expression of adipogenic markers, such as PPARγ and C/EBPα, was also evaluated.

3T3-L1 preadipocytes = assay: Cell viability, MTS assay; conditions: 0.5, 1 and 10 μM, 12 h
Experimental: Assessment of cell viability. In vitro cell viability after incubation with various GSIs at three concentrations was determined using an MTS assay, which is based on the mitochondrial conversion of a tetrazolium salt. 3T3-L1 preadipocytes were seeded onto 96-well plates at a density of 1×10^4 cells per well and cultured in 5% CO2 at 37° C. for 48 h. GSIs were then added to the cells in culture medium at the same final drug concentrations of 0.5, 1, and 10 μM, respectively, and cells were further incubated at 37° C. for 12 h. Subsequently, 20 μL of CellTiter 96® AQueous one solution reagent was added to each well in 100 μL of culture medium and incubated at 37° C. in a humidified, 5% CO2 atmosphere for 2 h. The absorbance was measured using a Tecan Spark™ 10M microplate reader (Tecan, Mannedorf, Switzerland) at a wavelength of 490 nm with background subtraction at 680 nm. Cells incubated with 0.1% Triton X-100 and dimethyl sulfoxide (DMSO) in culture medium served as positive and negative controls, respectively.
Effects of GSIs on cell viability. To investigate effects of GSIs on cell viability, 3T3-L1 preadipocytes were treated with GSIs at three gradient concentrations (0.5, 1, and 10 μM) for 12 h.

[5] = test system: Notch (Hes1) in human tumor-derived cells; conditions: cited from earlier work
[6] = all the concentrations (0.5, 1, 10 μM)

| Structure (SMILES) | mRNA expression of Hes1 [1] | dose dependence of the inhibitory effect on Hes1 expression [1] | increase of mRNA expression of Tmem26 [2] | protein expression of UCP1 ([4]; 1 μM) | cell viability / cytotoxicity (3T3-L1 preadipocytes) | also measured |
| --- | --- | --- | --- | --- | --- | --- |
| NC(=O)[C@@H](CCC(F)(F)F)N(Cc1ccc(-c2ncon2)cc1F)S(=O)(=O)c1ccc(Cl)cc1 [BMS-708163] | did not significantly decrease; also recorded: relatively moderate inhibitory effect | – | – | – | – | – |
| CN1C(=O)[C@@H](NC(=O)[C@H](CCC(F)(F)F)[C@H](CCC(F)(F)F)C(N)=O)N=C(c2ccccc2)c2ccccc21 [BMS-906024] | significantly inhibited | more significant with increasing the drug concentration | in a dose-dependent manner | minimal impact | – | UCP1 positive adipocytes (UCP1 expression) [3]: minimal efficiency; protein expression of C/EBPα ([4]; 1 μM): significantly upregulated |
| CC(C)[C@H](O)C(=O)N[C@@H](C)C(=O)N[C@@H]1C(=O)N(C)CCc2ccccc21 [LY450139] | did not significantly decrease | – | – | – | – | – |
| C[C@H](NC(=O)CCC(F)(F)F)C(=O)N[C@@H]1C(=O)N(CCO)c2ncccc2-c2ccccc21 [LY3039478] | significantly inhibited | more significant with increasing the drug concentration | in a dose-dependent manner | significant upregulation | did not result in any significant cytotoxicity | mRNA expression of Cox5B ([2]; 10 μM): Significant upregulation; mRNA expression of Ppargc1α ([2]; 10 μM): significant changes; protein expression of C/EBPα [4, 6]: significantly upregulated; protein expression of UCP1 ([4]; high concentration of 10 μM): did not significantly change |
| O=C(O)CC[C@H]1CC[C@@](c2cc(F)ccc2F)(S(=O)(=O)c2ccc(Cl)cc2)CC1 [MK-0752] | did not significantly decrease; also recorded: relatively moderate inhibitory effect | – | – | – | – | – |
| CCC[C@H](N[C@H]1CCc2cc(F)cc(F)c2C1)C(=O)Nc1cn(C(C)(C)CNCC(C)(C)C)cn1 [PF-03084014] | significantly inhibited | more significant with increasing the drug concentration | in a dose-dependent manner | significantly upregulated | decreased with increasing the drug concentration | mRNA expression of Cox5B ([2]; 1 μM): Significant upregulation; mRNA expression of Ppargc1α ([2]; 10 μM): significant changes; decrease of the upregulated UCP1 protein expression [4]: around 50% |
| CC(C)(C(=O)NCC(F)(F)C(F)(F)F)C(=O)N[C@@H]1C(=O)Nc2ccccc2-c2ccccc21 [RO4929097] | significantly inhibited | did not result in a dose-dependent depression | – | significantly upregulated | decreased with increasing the drug concentration | mRNA expression of Cox5B [2, 6]: increased; concentration above which no further reduction in mRNA level of Hes1 [5]: > 1 µM; concentration above which no further reduction in protein level of Hes1 [5]: higher than 0.5 μM; concentration at which dose-dependent inhibition of Notch begins [5]: ≥ 0.1 µM; protein expression of C/EBPα [4, 6]: significantly upregulated; decrease of the upregulated UCP1 protein expression [4]: around 50% |

Reference: patent US20230277549A1, “NOTCH SIGNALING INHIBITORS FOR TREATING OBESITY AND METABOLIC DISORDERS” (Purdue Research Foundation, priority 2020, published 2023)
